We go through 37 molecules from patent US8338565B2, “Macrocyclic compounds for inhibition of tumor necrosis factor alpha” (Ensemble Therapeutics Corporation, priority 2008, dated 2012).

Each structure is given as a SMILES string. Numbered stars: 1 amine (or outer) side, 2 acyl side, 3 side chain; on linkers, the order of the positions; unused ones are H or OH. Bridge positions count the residues as written; N and C are the ends. Square brackets hold non-standard residues; d marks the D form. Peptide text beside a SMILES is read from it. * marks the point of attachment. Phe(4-COOH) = N[C@@H](Cc1ccc(C(=O)O)cc1)C(=O)O; Bip = N[C@@H](Cc1ccc(-c2ccccc2)cc1)C(=O)O; Phe(4-NH2) = Nc1ccc(C[C@H](N)C(=O)O)cc1; d(hPhe) = N[C@H](CCc1ccccc1)C(=O)O; d2Thi = N[C@H](Cc1cccs1)C(=O)O; Suc = O=C(CCC(=O)[*:2])[*:1]; 3Abz = Nc1cccc(C(=O)O)c1; X1 = O=C(O)C1CCN(*)C1; GABA = NCCCC(=O)O

T1 sequence (P01375 77-233 limits assumed, species assumed): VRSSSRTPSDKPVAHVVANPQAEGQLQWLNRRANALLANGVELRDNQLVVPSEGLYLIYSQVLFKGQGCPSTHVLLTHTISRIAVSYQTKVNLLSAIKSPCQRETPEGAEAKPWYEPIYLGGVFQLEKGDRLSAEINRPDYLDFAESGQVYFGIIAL

The first test concerns the target T1, TNFα / TNFα receptor (TNFα R1/Fc) (Homo sapiens, UniProt P01375).
T1 construct: purchased R&D Systems
Kind of test: Inhibition of binding of TNFα to the TNFα receptor (plate ELISA competition). The settings on record: Activity (IC50, inhibition of TNFα binding to TNFα R1/Fc), Table 2. In short, it runs like this:
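Compound dilutions were preincubated 30 min at RT with 8.33 nM TNFα R1/Fc in PBST with 2% DMSO, then added to wells coated with 15 nM TNFα for 30 min. Bound receptor was detected with HRP anti-human Fc and TMB, read as A450.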
`O=C1COc2ccc(cc2)C[C@@H](C(=O)NCCO)NC(=O)[C@H](Cc2ccccc2)NC(=O)[C@H](Cc2ccc(-c3ccccc3)cc2)NC(=O)[C@H](Cc2cccs2)N1` [Compound 338] yielded an IC50 of 10 to 30 µM.

Turning to `O=C1COc2ccc(cc2)CC(C(=O)O)NC(=O)C(Cc2ccccc2)NC(=O)C(Cc2ccc([N+](=O)[O-])cc2)NC(=O)C(Cc2cccs2)N1` (stereo not shown) [Compound 358], the IC50 was above 100 µM.

The test is the same for the next values; noted with them: Table 2; read-out: Activity (IC50, inhibition of TNFα binding to TNFα R1/Fc).
As for `O=C(O)[C@@H]1Cc2ccc(cc2)NC(=O)[C@H](O)[C@@H](O)C(=O)N[C@H](Cc2ccccc2Cl)C(=O)N[C@@H](Cc2ccc(-c3ccccc3)cc2)C(=O)N[C@H](Cc2ccccc2)C(=O)N1` [Compound 315], the IC50 was 10 to 30 µM.

For `N#Cc1cccc(C[C@H]2NC(=O)[C@H](O)[C@@H](O)C(=O)Nc3ccc(cc3)C[C@@H](C(=O)O)NC(=O)[C@@H](Cc3ccccc3)NC(=O)[C@H](Cc3ccc(-c4ccccc4)cc3)NC2=O)c1` [Compound 316], the IC50 lay within 10 to 30 µM.

With `COc1cccc(C[C@H]2NC(=O)[C@H](O)[C@@H](O)C(=O)Nc3ccc(cc3)C[C@@H](C(=O)O)NC(=O)[C@@H](Cc3ccccc3)NC(=O)[C@H](Cc3ccc(-c4ccccc4)cc3)NC2=O)c1` [Compound 317], the IC50 is 10 to 30 µM.

As for `O=C1COc2ccc(cc2)C[C@@H](C(=O)NCCO)NC(=O)[C@@H](CCc2ccccc2)NC(=O)[C@H](Cc2ccc(-c3ccccc3)cc2)NC(=O)[C@@H](Cc2cccs2)N1` [Compound 322], the IC50 fell in the range of 10 to 30 µM.

For `O=C(O)CNC(=O)[C@@H]1Cc2ccc(cc2)OCC(=O)N[C@@H](Cc2cccs2)C(=O)N[C@@H](Cc2ccc(-c3ccccc3)cc2)C(=O)N[C@@H](Cc2ccccc2)C(=O)N1` [Compound 329], the IC50 was below 10 µM.

For `COc1ccc(-c2ccc(C[C@@H]3NC(=O)[C@@H](Cc4cccs4)NC(=O)[C@H](O)[C@@H](O)C(=O)Nc4ccc(cc4)C[C@@H](C(=O)O)NC(=O)[C@@H](Cc4ccccc4)NC3=O)cc2)cc1` [Compound 333], the IC50 was in the range of 30 to 100 µM.

For `O=C(O)[C@@H]1Cc2ccc(cc2)NC(=O)[C@H](O)[C@@H](O)C(=O)N[C@H](Cc2cccs2)C(=O)N[C@@H](Cc2ccc(-c3ccc(F)cc3)cc2)C(=O)N[C@H](Cc2ccccc2)C(=O)N1` [Compound 334], the IC50 fell in the range of 30 to 100 µM.

For the molecule `O=C(OCc1ccccc1)c1ccc(-c2ccc(C[C@@H]3NC(=O)[C@@H](Cc4cccs4)NC(=O)[C@H](O)[C@@H](O)C(=O)Nc4ccc(cc4)C[C@@H](C(=O)O)NC(=O)[C@@H](Cc4ccccc4)NC3=O)cc2)cc1` [Compound 335], the IC50 lay within 10 to 30 µM.

In the case of `O=C(Nc1ccc(-c2ccc(C[C@@H]3NC(=O)[C@@H](Cc4cccs4)NC(=O)[C@H](O)[C@@H](O)C(=O)Nc4ccc(cc4)C[C@@H](C(=O)O)NC(=O)[C@@H](Cc4ccccc4)NC3=O)cc2)cc1)OCc1ccccc1` [Compound 336], the IC50 lay in the range of 10 to 30 µM.

Regarding `O=C1N[C@H](CCc2ccccc2)C(=O)N[C@@H](Cc2ccc(-c3ccccc3)cc2)C(=O)N[C@H](Cc2ccccc2)C(=O)N[C@H](C(=O)O)Cc2ccc1cc2` [Compound 337] ([d(hPhe)][Bip][dF][Phe(4-COOH)]-OH; lactam N-4), the IC50 is above 100 µM.

For `O=C(O)CN(Cc1ccccc1)C(=O)[C@@H]1Cc2ccc(cc2)OCC(=O)N[C@@H](Cc2cccs2)C(=O)N[C@@H](Cc2ccc(-c3ccccc3)cc2)C(=O)N[C@@H](Cc2ccccc2)C(=O)N1` [Compound 340], the IC50 is below 10 µM.

On to `O=C(O)C[C@H](NC(=O)[C@@H]1Cc2ccc(cc2)OCC(=O)N[C@@H](Cc2cccs2)C(=O)N[C@@H](Cc2ccc(-c3ccccc3)cc2)C(=O)N[C@@H](Cc2ccccc2)C(=O)N1)C(=O)O` [Compound 345], for which the IC50 fell in the range of 30 to 100 µM.

As for `CC(C)(C)Oc1ccc(C[C@@H]2NC(=O)[C@H](Cc3ccc(-c4ccccc4)cc3)NC(=O)[C@H](Cc3cccs3)NC(=O)COc3ccc(cc3)C[C@@H](C(=O)O)NC2=O)cc1` [Compound 347], the IC50 was in the range of 30 to 100 µM.

With `CC(C)(C)OC(=O)CC[C@@H]1NC(=O)[C@@H](Cc2ccc(-c3ccccc3)cc2)NC(=O)[C@H](Cc2cccs2)NC(=O)COc2ccc(cc2)C[C@@H](C(=O)O)NC1=O` [Compound 349], the IC50 was 10 to 30 µM.

Regarding `COC(=O)[C@@H](CC(=O)O)NC(=O)[C@@H]1Cc2ccc(cc2)NC(=O)CCC(=O)N[C@H](CCc2ccccc2)C(=O)N[C@@H](Cc2ccc(-c3ccccc3)cc2)C(=O)N[C@H](Cc2ccccc2)C(=O)N1` [Compound 351] ([d(hPhe)][Bip][dF][Phe(4-NH2)][dD]-OMe; linker N-4 via Suc), the IC50 was 10 to 30 µM.

In the case of `O=C1CCC(=O)N[C@H](CCc2ccccc2)C(=O)N[C@@H](Cc2ccc(-c3ccccc3)cc2)C(=O)N[C@H](Cc2ccccc2)C(=O)N[C@H](C(=O)Nc2cccc(C(=O)O)c2)Cc2ccc(cc2)N1` [Compound 352] ([d(hPhe)][Bip][dF][Phe(4-NH2)][3Abz]-OH; linker N-4 via Suc), the IC50 was above 100 µM.

With `O=C1CCC(=O)N[C@H](CCc2ccccc2)C(=O)N[C@@H](Cc2ccc(-c3ccccc3)cc2)C(=O)N[C@H](Cc2ccccc2)C(=O)N[C@H](C(=O)N2CCC(C(=O)O)C2)Cc2ccc(cc2)N1` (stereo partly shown) [Compound 353] ([d(hPhe)][Bip][dF][Phe(4-NH2)]-X1; linker N-4 via Suc), the IC50 is above 100 µM.

For `O=C(O)CCCNC(=O)[C@@H]1Cc2ccc(cc2)NC(=O)CCC(=O)N[C@H](CCc2ccccc2)C(=O)N[C@@H](Cc2ccc(-c3ccccc3)cc2)C(=O)N[C@H](Cc2ccccc2)C(=O)N1` [Compound 354] ([d(hPhe)][Bip][dF][Phe(4-NH2)][GABA]-OH; linker N-4 via Suc), the IC50 is above 100 µM.

As to `O=C1COc2ccc(cc2)C[C@@H](C(=O)O)NC(=O)[C@H](Cc2ccccc2)NC(=O)[C@@H](Cc2ccc(F)cc2)NC(=O)[C@H](Cc2cccs2)N1` [Compound 355], the IC50 is above 100 µM.

On to `O=C1COc2ccc(cc2)C[C@@H](C(=O)O)NC(=O)[C@H](Cc2ccccc2)NC(=O)[C@@H](Cc2cccc(Cl)c2)NC(=O)[C@H](Cc2cccs2)N1` [Compound 356], for which the IC50 was above 100 µM.

Regarding `O=C1COc2ccc(cc2)C[C@@H](C(=O)O)NC(=O)[C@H](Cc2ccccc2)NC(=O)[C@@H](Cc2cccc3ccccc23)NC(=O)[C@H](Cc2cccs2)N1` [Compound 357], the IC50 was above 100 µM.

For `O=C1COc2ccc(cc2)C[C@@H](C(=O)O)NC(=O)[C@H](Cc2ccccc2)NC(=O)[C@H](Cc2ccc(Br)cc2)NC(=O)[C@H](Cc2cccs2)N1` [Compound 359], the IC50 was above 100 µM.

With `NCCCC[C@H](NC(=O)[C@@H]1Cc2ccc(cc2)NC(=O)[C@H](O)[C@@H](O)C(=O)N[C@H](Cc2cccs2)C(=O)N[C@@H](Cc2ccc(-c3ccccc3)cc2)C(=O)N[C@H](Cc2ccccc2)C(=O)N1)C(=O)O` [Compound 360], the IC50 is above 100 µM.

As to `O=C1COc2ccc(cc2)C[C@@H](C(=O)O)NC(=O)[C@H](Cc2ccccc2)NC(=O)[C@H](Cc2ccc(-c3ccc(C(=O)O)cc3)cc2)NC(=O)[C@H](Cc2cccs2)N1` [Compound 361], the IC50 is above 100 µM.

With `O=C1COc2ccc(cc2)C[C@@H](C(=O)O)NC(=O)[C@H](Cc2ccccc2)NC(=O)[C@H](Cc2ccc(-c3ccc(Cl)cc3)cc2)NC(=O)[C@H](Cc2cccs2)N1` [Compound 365], the IC50 lay in the range of 30 to 100 µM.

As for `O=C1COc2ccc(cc2)C[C@@H](C(=O)O)NC(=O)[C@H](Cc2ccccc2)NC(=O)[C@H](Cc2ccc(Cl)cc2Cl)NC(=O)[C@H](Cc2cccs2)N1` [Compound 367], the IC50 was above 100 µM.

For `O=C1COc2ccc(cc2)C[C@@H](C(=O)O)NC(=O)[C@H](c2ccccc2)NC(=O)[C@@H](Cc2ccc(-c3ccccc3)cc2)NC(=O)[C@H](Cc2cccs2)N1` [Compound 368], the IC50 is above 100 µM.

Consider `CN(C)C(=O)[C@@H]1Cc2ccc(cc2)NC(=O)CCC(=O)N[C@H](CCc2ccccc2)C(=O)N[C@@H](Cc2ccc(-c3ccccc3)cc2)C(=O)N[C@H](Cc2ccccc2)C(=O)N1` [Compound 370] ([d(hPhe)][Bip][dF][Phe(4-NH2)]-NMe2; linker N-4 via Suc), for which the IC50 is above 100 µM.

For `N[C@H]1CC(=O)Nc2ccc(cc2)C[C@@H](C(=O)O)NC(=O)[C@@H](Cc2ccccc2)NC(=O)[C@H](Cc2ccc(-c3ccccc3)cc2)NC(=O)[C@@H](Cc2cccs2)NC1=O` [Compound 371] (H-D[d2Thi][Bip][dF][Phe(4-NH2)]-OH; lactam 1-5), the IC50 is above 100 µM.

Regarding `N[C@@H]1CC(=O)Nc2ccc(cc2)C[C@@H](C(=O)O)NC(=O)[C@@H](Cc2ccccc2)NC(=O)[C@H](Cc2ccc(-c3ccccc3)cc2)NC(=O)[C@@H](Cc2cccs2)NC1=O` [Compound 372] (H-[dD][d2Thi][Bip][dF][Phe(4-NH2)]-OH; lactam 1-5), the IC50 is above 100 µM.

With `N[C@H]1CC(=O)N[C@H](Cc2cccs2)C(=O)N[C@@H](Cc2ccc(-c3ccccc3)cc2)C(=O)N[C@H](Cc2ccccc2)C(=O)N[C@H](C(=O)O)Cc2ccc(cc2)NC1=O` [Compound 373], the IC50 was above 100 µM.

Regarding `N[C@@H]1CC(=O)N[C@H](Cc2cccs2)C(=O)N[C@@H](Cc2ccc(-c3ccccc3)cc2)C(=O)N[C@H](Cc2ccccc2)C(=O)N[C@H](C(=O)O)Cc2ccc(cc2)NC1=O` [Compound 374], the IC50 was above 100 µM.

In the case of `CC(=O)N[C@H]1CC(=O)Nc2ccc(cc2)C[C@@H](C(=O)O)NC(=O)[C@@H](Cc2ccccc2)NC(=O)[C@H](Cc2ccc(-c3ccccc3)cc2)NC(=O)[C@@H](Cc2cccs2)NC1=O` [Compound 375] (Ac-D[d2Thi][Bip][dF][Phe(4-NH2)]-OH; lactam 1-5), the IC50 is above 100 µM.

Turning to `CC(=O)N[C@@H]1CC(=O)Nc2ccc(cc2)C[C@@H](C(=O)O)NC(=O)[C@@H](Cc2ccccc2)NC(=O)[C@H](Cc2ccc(-c3ccccc3)cc2)NC(=O)[C@@H](Cc2cccs2)NC1=O` [Compound 376] (Ac-[dD][d2Thi][Bip][dF][Phe(4-NH2)]-OH; lactam 1-5), the IC50 lay in the range of 10 to 30 µM.

In the case of `CC(=O)N[C@H]1CC(=O)N[C@H](Cc2cccs2)C(=O)N[C@@H](Cc2ccc(-c3ccccc3)cc2)C(=O)N[C@H](Cc2ccccc2)C(=O)N[C@H](C(=O)O)Cc2ccc(cc2)NC1=O` [Compound 377], the IC50 was above 100 µM.
